We go through three molecules from patent publication US20030158250A1, “Agents correcting gene expression regulatory error” (priority 2000, published 2003).

Holding throughout (type): cell-based
Experiment [1] has as its system GABA(A) receptor-associated protein (GABArp). The experiment in a line: RT-PCR expression level of GABArp gene in monocytes. Conditions: human monocytes, 30 PCR cycles. Here is the method: (§1) Four-hundred milliliters of blood was collected from a human normal individual donor. The collected blood was diluted 2-folds with PBS(−), overlaid on Ficoll-paque (manufactured by Pharmacia), and centrifuged at 500×g for 20 minutes. The peripheral blood mononuclear cells (PBMCs) in the intermediate layer was collected with a pipette, and washed with RPMI 1640 medium (manufactured by Bio Whittaker). The collected PBMCs was suspended in a storage solution of 90% FCS (manufactured by JRH Biosciences)/10% dimethyl sulfoxide, and stored in liquid nitrogen. During the experiment, these stored PBMCs were rapidly melted in water bath at 37° C., and washed with RPMI 1640 medium containing 10 μg/ml Dnase (manufactured by Calbiochem). Thereafter, the number of living cells was calculated by trypan blue staining method, and subjected to each experiment.
(§2) PBMCs were suspended in RPMI 1640 medium containing 5% human serum of blood type-AB, 0.1 mM nonessential amino acid, 1 mM sodium pyruvate, 2 mM L-glutamine (hereinabove manufactured by Bio Whittaker), 10 mM HEPES (manufactured by nakalai tesque), and 1% streptomycin-penicillin (manufactured by Gibco BRL) (hereinafter simply referred to as “5HRPMI medium”) so as to have a concentration of 4×10^6 cells/ml. Thereafter, the suspension was spread on a 6-well cell culture plate (manufactured by Falcon) in a volume of 3 ml/well, and the cells were incubated in a wet-type incubator at 37° C. and 5% CO2 for 1.5 hours. After 1.5 hours, the non-adherent cells were removed by suction, and each well was washed with RPMI 1640 medium, and 2 ml of the 5HRPMI medium was added to the wells, to give monocytes.
(§3) To the monocytes obtained above was added in each well 8 μl of an aqueous DGE solution, or 8 μl of water as a control, and the cells were incubated in a wet-type incubator at 37° C. and 5% CO2 for 5 hours. Thereafter, with addition of 2 μl of a 1 μg/ml aqueous LPS solution or 2 μl of a 25 μM TPA dimethyl sulfoxide solution to each well, or with addition of neither of these substances thereto, the cells were cultured for additional 4 hours. Thereafter, RNA was prepared from each cell in accordance with the description of the kit using RNeasy Mini Kit (manufactured by QIAGEN, 74104). The group with addition of water alone or the aqueous DGE solution alone to the cells was set as a negative control, and the group with addition of water and the aqueous LPS solution or the aqueous TPA solution to the cells was set as a positive control.
(§4) A liquid mixture having a total volume of 60 μl of 0.5 μg of RNA prepared above, 10 mM Tris-HCl (pH 8.3), 50 mM KCl, 5 mM MgCl2, 1 mM dNTP mixtures, 150 pmol of Random 6 mers, 60 U Ribonuclease Inhibitor (manufactured by Takara Shuzo Co., Ltd., 2310A), and 15 U Reverse Transcriptase XL (AMV) (manufactured by Takara Shuzo Co., Ltd., 2620A) were incubated at 30° C. for 10 minutes and thereafter at 42° C. for 1 hour using a thermal cycler (GeneAmp PCR System 9600, manufactured by Applied Biosystems), and the mixture was heated at 99° C. for 5 minutes to deactivate the enzyme, to give cDNA.
(§5) Oligonucleotide primers for reaction of PCR were designed based on mRNA nucleotide sequence of each gene listed in the following tables, and synthesized in the same manner as above. In Tables 4 and 5, each gene evaluated in this Example, GenBank Accession NO, the name of oligonucleotide primers and SEQ ID NOs of the primers in Sequence Listing were listed. […]

In a further experiment the test system is interleukin-6 (IL-6). The experiment in a line: RT-PCR expression level of IL-6 gene in monocytes. Conditions: human monocytes, 30 PCR cycles. On the procedure: as §1, §2, §3, §4, §5
Experiment [2] has as its system myeloid leukemia cell differentiation protein-1 (MCL1). In words: RT-PCR expression level of MCL1 gene in monocytes. Conditions: human monocytes, 30 PCR cycles. On the procedure:
as §1, §2, §3, §4, §5

In experiment [3] the test system is interleukin-7 receptor (IL-7r). The experiment in a line: RT-PCR expression level of IL-7r gene in monocytes. Conditions: human monocytes, 30 PCR cycles. On the procedure:
as §1, §2, §3, §4, §5

The next experiment has as its system COX2 mRNA. In words: RT-PCR of COX2 mRNA in monocytes. Conditions: human monocytes; for amplification of band ascribed to COX2 mRNA, stimulant alone: LPS or TPA alone, 4 hours, RT-PCR. On the procedure:
as §1, §2
as §3, with “control. […]” for “control.”

The subject of experiment [4] is macrophage-derived chemokine (MDC). In words: RT-PCR expression level of MDC gene in monocytes. Conditions: human monocytes, 30 PCR cycles. Here is the method:
as §1, §2, §3, §4, §5

Experiment [5] relates to growth regulated protein-1 (Gro1). In words: RT-PCR expression level of Gro1 gene in monocytes. Conditions: human monocytes, 30 PCR cycles. Here is the method: as §1, §2, §3, §4, §5
A further experiment has as its system MIP1α mRNA. In words: RT-PCR of MIP1α mRNA in monocytes. Conditions: human monocytes; for amplification of band ascribed to MIP1α mRNA, stimulant alone: LPS or TPA alone, 4 hours, RT-PCR. Here is the method:
as §1, §2
as §3, with “control. […]” for “control.”

For another experiment, the system named is interleukin-1α (IL-1α). In words: RT-PCR expression level of IL-1α gene in monocytes. Conditions: human monocytes, 30 PCR cycles. On the procedure:
as §1, §2, §3, §4, §5

For experiment [6], the system named is matrix metalloproteinase-9 (MMP-9). The experiment in a line: RT-PCR expression level of MMP-9 gene in monocytes. Conditions: human monocytes, 30 PCR cycles. Here is the method: as §1, §2, §3, §4, §5
In experiment [7] the test system is signal peptidase complex (18 kDa) (SPC18). The experiment in a line: RT-PCR expression level of SPC18 gene in monocytes. Conditions: human monocytes, 30 PCR cycles. Here is the method: as §1, §2, §3, §4, §5
Where [8] appears, read: substance added alone, Con. (water) +.
[9] abbreviates: substance added alone, Con. (water) −.
The mark [10] stands for this setting: substance added alone, Con. (water) +/−.
Where [11] appears, read: L + D: DGE and LPS, LPS alone +/−.
Where [12] appears, read: T + D: DGE and TPA, TPA alone +.
[13] abbreviates: L + D: DGE and LPS, LPS alone +++.
Where [14] appears, read: T + D: DGE and TPA, TPA alone −.
The mark [15] stands for this setting: DGE 5 hours, then LPS 4 hours, RT-PCR band.
The mark [16] stands for this setting: DGE 5 hours, then TPA 4 hours, RT-PCR band.

Turning to “lipopolysaccharide [LPS, reference compound]”, in experiment [1] (setting [8]), the “expression level of GABArp gene” value was “+/−”. Moreover, the “expression level of IL-6 gene” value with interleukin-6 (IL-6) (setting [9]) was “+++”. Also, the “expression level of MCL1 gene” value in experiment [2] (setting [8]) is “+/−”. Moreover, in [3] (setting [10]), the “expression level of IL-7r gene” value is “++”. For the same molecule, the “amplification of band ascribed to COX2 mRNA, stimulant alone” value in the experiment with COX2 mRNA was “induction”. The “expression level of MDC gene” value in experiment [4] (setting [9]) is on record as “+”. Moreover, in experiment [5] (setting [8]), the “expression level of Gro1 gene” value is “+++”. Besides, in the experiment with MIP1α mRNA, the “amplification of band ascribed to MIP1α mRNA, stimulant alone” value is recorded as “induction”. For the same molecule, the “expression level of IL-1α gene” value with interleukin-1α (IL-1α) (setting [10]) is “+++”. Moreover, the “expression level of MMP-9 gene” value in experiment [6] (setting [9]) is “−”. Besides, the “expression level of SPC18 gene” value in [7] (setting [8]) is reported as “+/−”.
Take “12-o-tetradecanoylphorbol 13-acetate [TPA, reference compound]”: the “expression level of GABArp gene” value in [1] (setting [8]) is “+”. Also, in the experiment with interleukin-6 (IL-6) (setting [9]), the “expression level of IL-6 gene” value is reported as “+”. Also, in [2] (setting [8]), the “expression level of MCL1 gene” value was “+”. Besides, the “expression level of IL-7r gene” value in experiment [3] (setting [10]) was “−”. The “amplification of band ascribed to COX2 mRNA, stimulant alone” value with COX2 mRNA was “induction”. Moreover, the “expression level of MDC gene” value in [4] (setting [9]) is on record as “−”. Also, the “expression level of Gro1 gene” value in experiment [5] (setting [8]) is “++”. Further, the “amplification of band ascribed to MIP1α mRNA, stimulant alone” value with MIP1α mRNA is given as “induction”. For the same molecule, the “expression level of IL-1α gene” value in the experiment with interleukin-1α (IL-1α) (setting [10]) is recorded as “+”. The “expression level of MMP-9 gene” value in experiment [6] (setting [9]) was “+”. In addition, the “expression level of SPC18 gene” value in experiment [7] (setting [8]) was “+”.
For `O=C1C=CC(CO)OC1O` [DGE, L-glycero-1,5-epoxy-1αβ,6-dihydroxy-cis-hex-3-en-2-one], the “expression level of GABArp gene” value in experiment [1] (setting [11]), in experiment [1] (setting [12]) and in experiment [1] (setting [8]) was “+” each time. The “expression level of IL-6 gene” value with interleukin-6 (IL-6) (setting [13]), in the experiment with interleukin-6 (IL-6) (setting [12]) and with interleukin-6 (IL-6) (setting [9]) was “−” each time. The “expression level of MCL1 gene” value in experiment [2] (setting [11]), in [2] (setting [12]) and in experiment [2] (setting [8]) was “+” each time. For the same molecule, the “expression level of IL-7r gene” value in [3] (L + D: DGE and LPS, LPS alone ++) is “−”; in experiment [3] (setting [14]), “−”; in experiment [3] (setting [10]), “−”. Moreover, the “induction of COX2 mRNA by LPS, effect of DGE” value with COX2 mRNA (setting [15]) is recorded as “inhibited”. Also, in the experiment on COX2 mRNA (setting [16]), the “induction of COX2 mRNA by TPA, effect of DGE” value is on record as “inhibited”. The “expression level of MDC gene” value in [4] (L + D: DGE and LPS, LPS alone +) is “−”; in experiment [4] (setting [14]), “−”; in [4] (setting [9]) it was “−”. Also, the “expression level of Gro1 gene” value in experiment [5] (setting [13]) is given as “+”; in experiment [5] (T + D: DGE and TPA, TPA alone ++) it was “+”; in experiment [5] (setting [8]) it was “+”. Besides, the “induction of MIP1α mRNA by LPS, effect of DGE” value with MIP1α mRNA (setting [15]) is given as “inhibited”. Moreover, in the experiment with MIP1α mRNA (setting [16]), the “induction of MIP1α mRNA by TPA, effect of DGE” value is “inhibited”. Also, the “expression level of IL-1α gene” value in the experiment on interleukin-1α (IL-1α) (setting [13]) is reported as “+/−”; with interleukin-1α (IL-1α) (setting [12]), “−”; with interleukin-1α (IL-1α) (setting [10]), “−”. Further, the “expression level of MMP-9 gene” value in experiment [6] (L + D: DGE and LPS, LPS alone −) is listed as “−”; in experiment [6] (setting [12]), “−”; in experiment [6] (setting [9]), “−”. Further, the “expression level of SPC18 gene” value in [7] (setting [11]), in experiment [7] (setting [12]) and in experiment [7] (setting [8]) was “+” in each case.
